Measured values taken from ChEMBL document CHEMBL3286248, “Easily accessible polycyclic amines that inhibit the wild-type and amantadine-resistant mutants of the M2 channel of influenza A virus” (J Med Chem, 2014).
Structures can show the parent of a compound that is named as a salt. Activity calls are given as the source filed them. The calls are words filed in the database; no cut-off is given here.

Columns and labels:
Influenza A virus [1] = details: mdck
Influenza A virus [2] = details: mdck; remark: listed apart in the source
MDCK [3] = test: Antiviral activity against Influenza A virus (A/HK/7/87(H3N2)) harboring wild type M2 channel infected in MDCK cells assessed as reduction in plaque size at 0.5 uM after 72 hrs by crystal violet staining; type: functional, cell-based; details: Influenza A virus (A/Hong Kong/7/1987(H3N2))
MDCK [4] = test: Antiviral activity against Influenza A virus (A/HK/7/87(H3N2)) harboring wild type M2 channel infected in MDCK cells assessed as reduction in plaque number at 0.5 uM after 72 hrs by crystal violet staining; type: functional, cell-based; details: Influenza A virus (A/Hong Kong/7/1987(H3N2))
MDCK [5] = type: functional, cell-based; details: Influenza A virus (A/Hong Kong/7/1987(H3N2)), 0.5 to 2 uM
[6] = tested on: Matrix protein 2 (Influenza A virus (A/Udorn/307/1972(H3N2))), P0DOF8 [V27A]; details: Influenza A virus (A/udorn/1972(H3N2))

Row | Structure (SMILES) | EC50 (Influenza A virus [1]) [µM] | EC50 (Influenza A virus [2]) [µM] | Activity (MDCK [3]) | Activity (MDCK [4]) | inhibition (MDCK [5]) | inhibition [6]
1 | CC(N)C12CC3CC(CC(C3)C1)C2 (stereo unspecified) [RIMANTADINE HYDROCHLORIDE] | 7.6 | 5.1 | – | – | – | –
2 | N=C(N)N1CC2C3CCC(C4CCC43)C2C1 (stereo unspecified) | > 100 | > 100 | Active | Active | – | –
3 | N=C(N)N1CC2C3C=CC(C4C=CC43)C2C1 (stereo unspecified) | > 100 | > 100 | – | – | Active | –
4 | C1CC2C3CNCC3C1C1CC21 (stereo unspecified) | > 100 | > 100 | – | – | – | –
5 | N=C(N)N1CC2C3C=CC(C4CC34)C2C1 (stereo unspecified) | > 100 | > 100 | – | – | – | –
6 | C1CC2C1C1CCC2C2CNCC12 (stereo unspecified) | > 100 | > 100 | Active | Active | – | –
7 | CC12CC34CNCC35CC1(C)C(C)(C5)C2(C)C4 (stereo unspecified) | 1.8 | 3 | – | – | Active | –
8 | C1CC(N2CC3C4CCC(C5CC45)C3C2)CCN1 (stereo unspecified) | > 100 | > 100 | – | – | – | inactive
9 | NC12CC3CC(CC(C3)C1)C2 [AMANTADINE] | 30 | – | – | – | – | –
10 | C1=CC2C3CNCC3C1C1CC21 (stereo unspecified) | > 100 | > 100 | – | – | – | –
11 | CC12CC34CN(C(=N)N)CC35CC1(C)C(C)(C5)C2(C)C4 (stereo unspecified) | > 100 | > 100 | – | – | – | –
12 | C1=CC2C1C1C=CC2C2CNCC12 (stereo unspecified) | 1.3 | < 0.8 | – | – | Active | –
13 | C1=CC2C3CC3C1C1CN(C3CCNCC3)CC21 (stereo unspecified) | ≤ 0.8 | < 0.8 | – | – | – | inactive
14 | N=C(N)N1CC2C3CCC(C4CC34)C2C1 (stereo unspecified) | > 100 | > 100 | – | – | – | –
